This note sets out measurements from PubChem BioAssay (NCI).

Where “and” joins values, the source holds several entries; their conditions need not be identical. Identical values can stand only once.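 The compound was tested at five concentrations on cells cultured in 96-well plates, with a 48-hour exposure period. GI50 = concentration required for 50% inhibition of growth. TGI marks complete inhibition of growth.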 Where only a bound is given, the exact number is not on record here.

Among the test systems are SF-268 CNS; A549 NSCLC; HOP-92 NSCLC; KM12 colon; EKVX NSCLC; MOLT-4 leukemia; NCI-H226 lung; NCI-H23 lung; SK-OV-3 ovarian; NCI-H522 lung.
Common to all, as to experiment: NCI anticancer screen, dose series, 48 h

As to `Cn1c2ccccc2c(=O)c2c(O)cc3c(c21)CC(C1(C)CO1)O3` (configuration not stated), the TGI in the assay with SF-268 CNS was found to be 4.11 µM; in the assay on A549 NSCLC, 28.2 µM; with HOP-92 NSCLC it was 30.8 µM; with KM12 colon it was 6.52 µM; with EKVX NSCLC, 14 µM; in the assay on MOLT-4 leukemia it was 1.45 µM. Also, the TGI came out at 32 µM in the assay on NCI-H226 lung, 4.14 µM in the assay with NCI-H23 lung, 24.1 µM with SK-OV-3 ovarian and 9.79 µM in the assay with NCI-H522 lung.
Consider `NC1CCC(Nc2nc(NCc3cc(Cl)ccc3O)c3ncn(C4CCCC4)c3n2)CC1` (configuration not stated), for which the GI50 in the assay on SF-268 CNS is 0.188 µM; in the assay with A549 NSCLC, 0.193 µM; in the assay with HOP-92 NSCLC, 0.163 µM; in the assay on KM12 colon it was 0.132 µM; in the assay with EKVX NSCLC it was 0.262 µM; in the assay with MOLT-4 leukemia, 0.133 µM. Further, the GI50 in the assay on NCI-H226 lung was 0.247 µM; with NCI-H23 lung, 0.153 µM; in the assay on SK-OV-3 ovarian, 0.494 µM; in the assay on NCI-H522 lung, 0.152 µM. In addition, the TGI in the assay with SF-268 CNS is 0.52 µM; in the assay with A549 NSCLC, 0.713 µM; in the assay on HOP-92 NSCLC, 0.63 µM; in the assay on KM12 colon, 1.02 µM; in the assay with EKVX NSCLC, 0.928 µM; in the assay with MOLT-4 leukemia, 0.492 µM. The TGI in the assay on NCI-H226 lung amounted to 2.78 µM; in the assay with NCI-H23 lung, 0.478 µM; in the assay on SK-OV-3 ovarian, 1.65 µM; in the assay on NCI-H522 lung, 0.335 µM.
On to `CC(=O)[CH-]C(=O)c1ccccc1.CC(=O)[CH-]C(=O)c1ccccc1.CC[C@H](/C=C/C(C)[C@H]1CCC2[C@@H]3CC=C4C[C@@H]([O-])CC[C@]4(C)C3CC[C@@]21C)C(C)C.CC[O-].[Ti+4]` (some centres not stated), for which the GI50 with SF-268 CNS was greater than 100 µM; in the assay on A549 NSCLC, greater than 100 µM; in the assay on HOP-92 NSCLC, 95.3 µM; in the assay with KM12 colon it was greater than 100 µM; with EKVX NSCLC it was greater than 100 µM; in the assay on MOLT-4 leukemia, greater than 100 µM. The GI50 was greater than 100 µM in the assay on NCI-H226 lung, greater than 100 µM in the assay on NCI-H23 lung, greater than 100 µM in the assay with SK-OV-3 ovarian and 44.8 µM in the assay with NCI-H522 lung. For the same compound, the TGI in the assay with SF-268 CNS, in the assay with A549 NSCLC, in the assay with HOP-92 NSCLC, with KM12 colon, with EKVX NSCLC and with MOLT-4 leukemia was greater than 100 µM throughout. Moreover, the TGI with NCI-H226 lung, with NCI-H23 lung, in the assay with SK-OV-3 ovarian and with NCI-H522 lung was greater than 100 µM in each case.
Consider `O=C1CCCCC=C1C[N+](=O)[O-]`, for which the GI50 is 30.8 µM in the assay with SF-268 CNS; 38.2 µM with A549 NSCLC; 29 µM in the assay with HOP-92 NSCLC; 45.1 µM in the assay on KM12 colon; 34.5 µM with EKVX NSCLC; 11.9 µM with MOLT-4 leukemia. For the same compound, the GI50 is 26 µM with NCI-H226 lung, 27.5 µM with NCI-H23 lung, greater than 100 µM in the assay on SK-OV-3 ovarian and 14.6 µM in the assay with NCI-H522 lung. Also, the TGI was greater than 100 µM in the assay with SF-268 CNS; greater than 100 µM in the assay on A549 NSCLC; 51.9 µM with HOP-92 NSCLC; greater than 100 µM in the assay on KM12 colon; greater than 100 µM with EKVX NSCLC; 31 µM in the assay with MOLT-4 leukemia. Also, the TGI in the assay on NCI-H226 lung was 73.3 µM; in the assay with NCI-H23 lung it was 69.9 µM; with SK-OV-3 ovarian, greater than 100 µM; with NCI-H522 lung, 37 µM.
For `O=S(=O)(c1ccc(Br)cc1)N1CCN(S(=O)(=O)c2ccc(Br)cc2)CC1`, the TGI in the assay on SF-268 CNS was greater than 100 µM; in the assay on A549 NSCLC it was greater than 100 µM; with HOP-92 NSCLC, greater than 100 µM; with KM12 colon, greater than 100 µM; with EKVX NSCLC it was greater than 100 µM; in the assay with MOLT-4 leukemia, 26.7 µM. Also, the TGI in the assay on NCI-H226 lung, in the assay with NCI-H23 lung, in the assay with SK-OV-3 ovarian and in the assay on NCI-H522 lung was greater than 100 µM throughout.
Take `COc1cc2nc(-c3ccc(Cl)cc3)cc(OCCCN3CCCC3)c2cc1OC`: the GI50 in the assay on SF-268 CNS was 2.53 µM; with A549 NSCLC it was 1.52 µM; in the assay on HOP-92 NSCLC, 0.85 µM; with KM12 colon it was 2.46 µM; in the assay on EKVX NSCLC, 1.21 µM; in the assay with MOLT-4 leukemia it was 1.5 µM. Moreover, the GI50 is 0.898 µM in the assay on NCI-H226 lung, 2.45 µM in the assay with NCI-H23 lung, 2.42 µM in the assay on SK-OV-3 ovarian and 2.36 µM with NCI-H522 lung. Moreover, the TGI in the assay with SF-268 CNS was 15.5 µM; with A549 NSCLC it was 12.4 µM; in the assay with HOP-92 NSCLC, 5.43 µM; in the assay with KM12 colon, 10.2 µM; in the assay on EKVX NSCLC, 12 µM; in the assay with MOLT-4 leukemia it was 3.47 µM. The TGI was determined as 3.21 µM in the assay with NCI-H226 lung, 12.1 µM in the assay with NCI-H23 lung, 15.3 µM in the assay with SK-OV-3 ovarian and 8.89 µM in the assay on NCI-H522 lung.
In the case of `COC(C(=O)C(O)C(C)O)C1Cc2cc3cc(OC4CC(OC5CC(O)C(O)C(C)O5)C(O)C(C)O4)c(C)c(O)c3c(O)c2C(=O)C1OC1CC(OC2CC(O)C(OC3CC(C)(O)C(O)C(C)O3)C(C)O2)C(O)C(C)O1` (configuration not stated), the GI50 was 16.7 ng/mL and 1.13 ng/mL in the assay on SF-268 CNS; 12.6 ng/mL and 1.27 ng/mL in the assay with A549 NSCLC; 11.2 ng/mL and 3.21 ng/mL in the assay with HOP-92 NSCLC; 11.2 ng/mL and 0.667 ng/mL in the assay with KM12 colon; 18.8 ng/mL and 0.265 ng/mL with EKVX NSCLC; 11.2 ng/mL and 2.69 ng/mL with MOLT-4 leukemia. Moreover, the GI50 was 11.2 ng/mL and 0.196 ng/mL in the assay on NCI-H226 lung; 11.2 ng/mL and 0.748 ng/mL in the assay with NCI-H23 lung; 0.0163 µg/mL and 0.0045 µg/mL in the assay on SK-OV-3 ovarian; 11.2 ng/mL and 0.596 ng/mL in the assay on NCI-H522 lung. The TGI in the assay with HOP-92 NSCLC was 0.08 µg/mL and 0.082 µg/mL; with KM12 colon, 0.0428 µg/mL and 0.0723 µg/mL.
Turning to `O=C(c1ccco1)c1c(C(F)(F)F)nc2ccc(C(F)(F)F)cc2[n+]1[O-]`, the GI50 in the assay with SF-268 CNS is 33.3 µM; in the assay on A549 NSCLC, greater than 64.4 µM; with HOP-92 NSCLC, 21 µM; with KM12 colon it was 68 µM; in the assay on EKVX NSCLC, 19.9 µM; in the assay with MOLT-4 leukemia, greater than 100 µM. In addition, the GI50 with NCI-H226 lung is 32.1 µM; in the assay on NCI-H23 lung, greater than 80.4 µM; in the assay with SK-OV-3 ovarian it was 35 µM; with NCI-H522 lung it was 62.1 µM. The TGI was 99.5 µM in the assay with SF-268 CNS; greater than 100 µM with A549 NSCLC; 49.2 µM with HOP-92 NSCLC; greater than 100 µM in the assay on KM12 colon; greater than 69.6 µM with EKVX NSCLC; greater than 100 µM with MOLT-4 leukemia. In addition, the TGI in the assay on NCI-H226 lung, in the assay on NCI-H23 lung, in the assay on SK-OV-3 ovarian and in the assay on NCI-H522 lung was greater than 100 µM in each case.
